We go through 14 compounds from PubChem BioAssay (NCI).

Structures are written as SMILES.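 Compound exposure: 48 hours, 5 concentrations, 96-well plates. At the GI50, growth is halved. TGI: concentration producing complete growth inhibition.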

Test systems include HOP-62 NSCLC; LOX IMVI melanoma; M14 melanoma; MOLT-4 leukemia; RPMI-8226 leukemia; SF-268 CNS; TK-10 renal; UACC-62 melanoma; CAKI-1 renal; SR leukemia.
Holding throughout (test): NCI anticancer screen, dose series, 48 h

As to `COCCOCOC(CCCCO)c1cc(C)c(O[Si](C)(C)C(C)(C)C)c(C)c1` (stereo not drawn), the TGI amounted to 23 µM with HOP-62 NSCLC; 18.7 µM with LOX IMVI melanoma; 23.1 µM in the test with M14 melanoma; 13.2 µM with MOLT-4 leukemia; 11.6 µM in the test on RPMI-8226 leukemia; 20.4 µM in the test with SF-268 CNS. For the same compound, the TGI in the test on TK-10 renal came out at 27.3 µM; in the test on UACC-62 melanoma, 25.4 µM.
As for `CCCC/C=C/C=C/C=C/CCCCCCCC(=O)OCC(COC(=O)CCCCCCC/C=C/C1C=CC(CCCC)C(C(=O)O)C1C(=O)O)OC(=O)CCCCCCC/C=C/C=C/C=C/CCCC` (stereo not drawn) (tested in a mixture with another compound), the TGI came to 76.1 µM with CAKI-1 renal; 38.6 µM in the test with HOP-62 NSCLC; 27.5 µM with LOX IMVI melanoma; 29.7 µM in the test on M14 melanoma; 47.2 µM with MOLT-4 leukemia; 15 µM in the test with RPMI-8226 leukemia. Besides, the TGI in the test on SF-268 CNS was 36.1 µM; in the test with TK-10 renal, 37.7 µM; in the test on UACC-62 melanoma it was 29.1 µM.
Turning to `CN(C)C=Nc1nc(=O)n(C2CCC(CO)O2)cc1F` (stereo not drawn), the TGI in the test with CAKI-1 renal, in the test with HOP-62 NSCLC, with LOX IMVI melanoma, with M14 melanoma, with MOLT-4 leukemia and with RPMI-8226 leukemia was > 100 µM in each case. Further, the TGI in the test on SF-268 CNS and with TK-10 renal was > 100 µM throughout.
In the case of `COc1ccc(/C=C/COC(C)=O)cc1OC`, the TGI with CAKI-1 renal, with MOLT-4 leukemia, in the test on RPMI-8226 leukemia, with SF-268 CNS, in the test with SR leukemia and in the test on TK-10 renal was > 100 µM each time. For the same compound, the TGI in the test on UACC-62 melanoma was > 100 µM.
Consider `Cn1cc(-c2cc3c(N4CCN(c5ncc([C@@](C)(N)c6ccc(F)cc6)cn5)CC4)ncnn3c2)cn1`, for which the GI50 in the test with CAKI-1 renal is 2.63 µM; in the test with HOP-62 NSCLC, 6.31 µM; in the test on LOX IMVI melanoma it was 3.27 µM; in the test with M14 melanoma, 4.42 µM; with MOLT-4 leukemia, 2.52 µM; in the test on UACC-62 melanoma, 5.23 µM. Also, the TGI in the test with CAKI-1 renal, in the test with HOP-62 NSCLC, in the test on LOX IMVI melanoma, with M14 melanoma, in the test with MOLT-4 leukemia and in the test on UACC-62 melanoma was > 100 µM each time.
On to `S=P1(Oc2ccccc2)NNP2(=NP(N3CC3)(N3CC3)=NP(N3CC3)(N3CC3)=N2)NN1` (stereo not drawn), for which the TGI in the test with CAKI-1 renal, in the test with HOP-62 NSCLC, in the test with LOX IMVI melanoma, in the test with MOLT-4 leukemia, with RPMI-8226 leukemia and in the test on SF-268 CNS was > 100 µM each time. Also, the TGI in the test on TK-10 renal and in the test on UACC-62 melanoma was > 100 µM throughout.
Turning to `Cc1ccc(NC2=C3CCCCC3OC2=O)cc1` (stereo not drawn), the GI50 in the test with CAKI-1 renal was 49.5 µM; in the test with HOP-62 NSCLC, > 100 µM; with M14 melanoma it was > 100 µM; in the test with MOLT-4 leukemia it was 19.1 µM; in the test on RPMI-8226 leukemia, 34.5 µM; with SF-268 CNS, > 100 µM. In addition, the values for the GI50 in the test with SR leukemia, with TK-10 renal and in the test with UACC-62 melanoma were 39.5 µM, > 100 µM and 47 µM, respectively. In addition, the TGI was > 100 µM with CAKI-1 renal; > 100 µM in the test on HOP-62 NSCLC; > 100 µM in the test on M14 melanoma; 86 µM in the test on MOLT-4 leukemia; > 100 µM in the test on RPMI-8226 leukemia; > 100 µM in the test on SF-268 CNS. The TGI with SR leukemia, with TK-10 renal and in the test on UACC-62 melanoma was > 100 µM each time.
Consider `COc1ccc2c(c1)[n+]([O-])c(C(N)=O)c(N)[n+]2[O-]`, for which the TGI in the test on CAKI-1 renal, with HOP-62 NSCLC, in the test with M14 melanoma, with RPMI-8226 leukemia and in the test with SR leukemia was > 100 µM in each case.
As for `N#CCCC[Si]12OCCN(CCO1)CCO2`, the TGI with CAKI-1 renal, with MOLT-4 leukemia, in the test on RPMI-8226 leukemia, in the test with SF-268 CNS, in the test with SR leukemia and with TK-10 renal was > 100 µM each time. Moreover, in the test with UACC-62 melanoma, the TGI is > 100 µM.
In the case of `Cc1ccc(S(=O)(=O)N2CCC2c2ccccc2)cc1` (stereo not drawn), the TGI in the test on HOP-62 NSCLC, with LOX IMVI melanoma, with M14 melanoma, in the test with MOLT-4 leukemia, with RPMI-8226 leukemia and in the test with SF-268 CNS was > 100 µM each time. Also, the TGI in the test on TK-10 renal and in the test on UACC-62 melanoma was > 100 µM in each case.
As to `N#CC(C(=O)CCC(=O)Nc1ccc(Cl)c(Cl)c1)c1ccccc1` (stereo not drawn), the TGI in the test on CAKI-1 renal, with HOP-62 NSCLC, in the test with M14 melanoma, in the test with MOLT-4 leukemia, in the test with RPMI-8226 leukemia and in the test on SF-268 CNS was > 100 µM in each case. Further, the TGI in the test on UACC-62 melanoma was > 100 µM.
Regarding `COc1cc(-c2nc3sccn3c2-c2ccnc(NCCNS(=O)(=O)c3ccc(F)cc3)n2)ccc1F`, the GI50 in the test with CAKI-1 renal is 2.53 µM; with HOP-62 NSCLC it was 4.82 µM; in the test with LOX IMVI melanoma, 1.65 µM; in the test with M14 melanoma it was 0.499 µM; with SF-268 CNS it was 2.78 µM; in the test on SR leukemia, 2.51 µM. Moreover, the figures for the GI50 with TK-10 renal and in the test with UACC-62 melanoma were 6.27 µM and 0.688 µM, respectively. The TGI in the test with CAKI-1 renal, in the test on HOP-62 NSCLC, in the test with LOX IMVI melanoma, with M14 melanoma, in the test with SF-268 CNS and in the test with SR leukemia was > 100 µM throughout. The TGI in the test on TK-10 renal was > 100 µM; in the test with UACC-62 melanoma it was 2.55 µM.
As to `CC#Cc1ccc(-c2ccccc2)s1`, the TGI with CAKI-1 renal, in the test with LOX IMVI melanoma, with M14 melanoma, in the test on MOLT-4 leukemia, in the test on SF-268 CNS and in the test on SR leukemia was > 100 µM throughout. For the same compound, the TGI with TK-10 renal and with UACC-62 melanoma was > 100 µM throughout.
Turning to `O=c1[nH]c(-c2ccccc2)nc2cc(Cl)ccc12`, the TGI with CAKI-1 renal, in the test on HOP-62 NSCLC, in the test on M14 melanoma, in the test with MOLT-4 leukemia, in the test on RPMI-8226 leukemia and with TK-10 renal was > 100 µM each time. Further, the TGI with UACC-62 melanoma was > 100 µM.
